Experimental data as given in US12077503B2, “Substituted cyclic amides and their use as herbicides” (FMC CORPORATION, priority 2015, dated 2024).

Assays:
Format in all cases: in vivo
[1] = tested on: barnyardgrass (Echinochloa crus-galli); test: Test G Post-Emergence Protocol; details: Echinochloa crus-galli, post-emergence, 312 h, read-out: Barnyardgrass damage rating; for pest or weed control at 15.625 g/ha: 15.625 g ai/ha, evaluated after 13 days (100=total damage to plant; 0=no damage to plant); for pest or weed control at 62.5 g/ha: 62.5 g ai/ha; for pest or weed control at 62.5 g/ha / pest or weed control at 250 g/ha: evaluated after 13 days, 100=total damage to plant, 0=no damage to plant; for pest or weed control at 250 g/ha: 250 g ai/ha
Procedure, shortened: (§1)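 Sow in soil; grow 8 d (24/16 °C, 14 h light, 65% humidity); spray 15.625/62.5/250 g/ha in acetone:water 50:50 + 0.5% Tween 20; grow on, water twice daily; score damage 0–100 at 13 d.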

[2] = tested on: velvetleaf (Abutilon theophrasti); test: Test G Post-Emergence Protocol; details: Abutilon theophrasti, post-emergence, 312 h, read-out: Velvetleaf damage rating; for pest or weed control at 15.625 g/ha: 15.625 g ai/ha, evaluated after 13 days (100=total damage to plant; 0=no damage to plant); for pest or weed control at 62.5 g/ha: 62.5 g ai/ha; for pest or weed control at 62.5 g/ha / pest or weed control at 250 g/ha: evaluated after 13 days, 100=total damage to plant, 0=no damage to plant; for pest or weed control at 250 g/ha: 250 g ai/ha
Procedure, shortened: as §1

[3] = tested on: corn (Zea mays); test: Test G Post-Emergence Protocol; details: Zea mays, post-emergence, 312 h, read-out: Corn damage rating; for plant injury at 15.625 g/ha: 15.625 g ai/ha, evaluated after 13 days (100=total damage to plant; 0=no damage to plant); for plant injury at 62.5 g/ha: 62.5 g ai/ha; for plant injury at 62.5 g/ha / plant injury at 250 g/ha: evaluated after 13 days, 100=total damage to plant, 0=no damage to plant; for plant injury at 250 g/ha: 250 g ai/ha
Procedure, shortened: as §1

[4] = tested on: redroot pigweed (Amaranthus retroflexus); test: Test G Post-Emergence Protocol; details: Amaranthus retroflexus, post-emergence, 312 h, read-out: Pigweed, Redroot damage rating; for pest or weed control at 15.625 g/ha: 15.625 g ai/ha, evaluated after 13 days (100=total damage to plant; 0=no damage to plant); for pest or weed control at 62.5 g/ha: 62.5 g ai/ha; for pest or weed control at 62.5 g/ha / pest or weed control at 250 g/ha: evaluated after 13 days, 100=total damage to plant, 0=no damage to plant; for pest or weed control at 250 g/ha: 250 g ai/ha
Procedure, shortened: as §1

[5] = tested on: giant foxtail (Setaria faberi); test: Test G Post-Emergence Protocol; details: Setaria faberi, post-emergence, 312 h, read-out: Foxtail, Giant damage rating; for pest or weed control at 15.625 g/ha: 15.625 g ai/ha, evaluated after 13 days (100=total damage to plant; 0=no damage to plant); for pest or weed control at 62.5 g/ha: 62.5 g ai/ha
Procedure, shortened: as §1

[6] = tested on: ivy-leaved morning glory (Ipomoea hederacea); test: Test G Post-Emergence Protocol; details: Ipomoea, post-emergence, 312 h, read-out: Morningglory, Ivy-leaved damage rating; for pest or weed control at 15.625 g/ha: 15.625 g ai/ha, evaluated after 13 days (100=total damage to plant; 0=no damage to plant); for pest or weed control at 62.5 g/ha: 62.5 g ai/ha; for pest or weed control at 62.5 g/ha / pest or weed control at 250 g/ha: evaluated after 13 days, 100=total damage to plant, 0=no damage to plant; for pest or weed control at 250 g/ha: 250 g ai/ha
Procedure, shortened: as §1

[7] = tested on: barnyardgrass (Echinochloa crus-galli); test: Test G Pre-Emergence Protocol; details: Echinochloa crus-galli, pre-emergence, 312 h, evaluated after 13 days; for pest or weed control at 15.625 g/ha: 15.625 g ai/ha; for pest or weed control at 15.625 g/ha / pest or weed control at 250 g/ha: read-out: Barnyardgrass damage rating (100=total damage to plant; 0=no damage to plant); for pest or weed control at 62.5 g/ha: 62.5 g ai/ha, 100=total damage to plant, 0=no damage to plant, read-out: Barnyardgrass damage rating; for pest or weed control at 250 g/ha: 250 g ai/ha
Procedure, shortened: (§2)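 Herbicidal effect was rated 13 days post-application on a scale where 100 equals total damage. Spraying took place the day after sowing, using 15.625, 62.5 or 250 g/ha of compound in a 50:50 acetone/water solution with 0.5% Tween 20.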

[8] = tested on: velvetleaf (Abutilon theophrasti); test: Test G Pre-Emergence Protocol; details: Abutilon theophrasti, pre-emergence, 312 h, evaluated after 13 days; for pest or weed control at 15.625 g/ha: 15.625 g ai/ha; for pest or weed control at 15.625 g/ha / pest or weed control at 250 g/ha: read-out: Velvetleaf damage rating (100=total damage to plant; 0=no damage to plant); for pest or weed control at 62.5 g/ha: 62.5 g ai/ha, 100=total damage to plant, 0=no damage to plant, read-out: Velvetleaf damage rating; for pest or weed control at 250 g/ha: 250 g ai/ha
Procedure, shortened: as §2

[9] = tested on: corn (Zea mays); test: Test G Pre-Emergence Protocol; details: Zea mays, pre-emergence, 312 h, evaluated after 13 days; for plant injury at 15.625 g/ha: 15.625 g ai/ha; for plant injury at 15.625 g/ha / plant injury at 250 g/ha: read-out: Corn damage rating (100=total damage to plant; 0=no damage to plant); for plant injury at 62.5 g/ha: 62.5 g ai/ha, 100=total damage to plant, 0=no damage to plant, read-out: Corn damage rating; for plant injury at 250 g/ha: 250 g ai/ha
Procedure, shortened: as §2

[10] = tested on: redroot pigweed (Amaranthus retroflexus); test: Test G Pre-Emergence Protocol; details: Amaranthus retroflexus, pre-emergence, 312 h, evaluated after 13 days; for pest or weed control at 15.625 g/ha: 15.625 g ai/ha; for pest or weed control at 15.625 g/ha / pest or weed control at 250 g/ha: read-out: Pigweed, Redroot damage rating (100=total damage to plant; 0=no damage to plant); for pest or weed control at 62.5 g/ha: 62.5 g ai/ha, 100=total damage to plant, 0=no damage to plant, read-out: Pigweed, Redroot damage rating; for pest or weed control at 250 g/ha: 250 g ai/ha
Procedure, shortened: as §2

[11] = tested on: giant foxtail (Setaria faberi); test: Test G Pre-Emergence Protocol; details: Setaria faberi, pre-emergence, 312 h, evaluated after 13 days; for pest or weed control at 15.625 g/ha: 15.625 g ai/ha; for pest or weed control at 15.625 g/ha / pest or weed control at 250 g/ha: read-out: Foxtail, Giant damage rating (100=total damage to plant; 0=no damage to plant); for pest or weed control at 62.5 g/ha: 62.5 g ai/ha, 100=total damage to plant, 0=no damage to plant, read-out: Foxtail, Giant damage rating; for pest or weed control at 250 g/ha: 250 g ai/ha
Procedure, shortened: as §2

[12] = tested on: ivy-leaved morning glory (Ipomoea hederacea); test: Test G Pre-Emergence Protocol; details: Ipomoea, pre-emergence, 312 h, evaluated after 13 days; for pest or weed control at 15.625 g/ha: 15.625 g ai/ha; for pest or weed control at 62.5 g/ha: 62.5 g ai/ha, 100=total damage to plant, 0=no damage to plant, read-out: Morningglory, Ivy-leaved damage rating
Procedure, shortened: as §2

[13] = evaluated after 13 days, 100=total damage to plant, 0=no damage to plant
[14] = read-out: Morningglory, Ivy-leaved damage rating (100=total damage to plant; 0=no damage to plant)

CN1C[C@H](c2ccc(C(F)(F)F)cc2)[C@@H](C(=O)Nc2cnccc2F)C1=O (racemic) [Compound 1744]
pest or weed control at 15.625 g/ha [1]: 0% | pest or weed control at 62.5 g/ha [1]: 10% | pest or weed control at 250 g/ha [1]: 70% | pest or weed control at 15.625 g/ha [2]: 0% | pest or weed control at 62.5 g/ha [2]: 0% | pest or weed control at 250 g/ha [2]: 10% | plant injury at 15.625 g/ha [3]: 0% | plant injury at 62.5 g/ha [3]: 0% | plant injury at 250 g/ha [3]: 10% | pest or weed control at 15.625 g/ha [4]: 0% | pest or weed control at 62.5 g/ha [4]: 10% | pest or weed control at 250 g/ha [4]: 30% | pest or weed control at 15.625 g/ha [5]: 0% | pest or weed control at 62.5 g/ha [5, 13]: 20% | pest or weed control at 250 g/ha ([5]; 250 g ai/ha, evaluated after 13 days, 100=total damage to plant, 0=no damage to plant): 60% | pest or weed control at 15.625 g/ha [6]: 0% | pest or weed control at 62.5 g/ha [6]: 0% | pest or weed control at 250 g/ha [6]: 40% | pest or weed control at 15.625 g/ha [7]: 0% | pest or weed control at 62.5 g/ha [7]: 0% | pest or weed control at 250 g/ha [7]: 0% | pest or weed control at 15.625 g/ha [8]: 0% | pest or weed control at 62.5 g/ha [8]: 0% | pest or weed control at 250 g/ha [8]: 0% | plant injury at 15.625 g/ha [9]: 0% | plant injury at 62.5 g/ha [9]: 0% | plant injury at 250 g/ha [9]: 0% | pest or weed control at 15.625 g/ha [10]: 0% | pest or weed control at 62.5 g/ha [10]: 10% | pest or weed control at 250 g/ha [10]: 10% | pest or weed control at 15.625 g/ha [11]: 0% | pest or weed control at 62.5 g/ha [11]: 10% | pest or weed control at 250 g/ha [11]: 50% | pest or weed control at 15.625 g/ha [12, 14]: 0% | pest or weed control at 62.5 g/ha [12]: 0%

COc1ccc(C2CN(C)C(=O)C2C(=O)Nc2cccc(F)c2F)cc1C (stereo not shown) [Compound 1688]
pest or weed control at 15.625 g/ha [1]: 30% | pest or weed control at 62.5 g/ha [1]: 70% | pest or weed control at 250 g/ha [1]: 90% | pest or weed control at 15.625 g/ha [2]: 0% | pest or weed control at 62.5 g/ha [2]: 0% | pest or weed control at 250 g/ha [2]: 10% | plant injury at 15.625 g/ha [3]: 0% | plant injury at 62.5 g/ha [3]: 30% | plant injury at 250 g/ha [3]: 60% | pest or weed control at 15.625 g/ha [4]: 0% | pest or weed control at 62.5 g/ha [4]: 0% | pest or weed control at 250 g/ha [4]: 10% | pest or weed control at 15.625 g/ha [5]: 60% | pest or weed control at 62.5 g/ha [5, 13]: 80% | pest or weed control at 15.625 g/ha [6]: 0% | pest or weed control at 62.5 g/ha [6]: 20% | pest or weed control at 250 g/ha [6]: 60% | pest or weed control at 15.625 g/ha [7]: 50% | pest or weed control at 62.5 g/ha [7]: 70% | pest or weed control at 250 g/ha [7]: 90% | pest or weed control at 15.625 g/ha [8]: 10% | pest or weed control at 62.5 g/ha [8]: 0% | pest or weed control at 250 g/ha [8]: 50% | plant injury at 15.625 g/ha [9]: 0% | plant injury at 62.5 g/ha [9]: 50% | plant injury at 250 g/ha [9]: 70% | pest or weed control at 15.625 g/ha [10]: 30% | pest or weed control at 62.5 g/ha [10]: 20% | pest or weed control at 250 g/ha [10]: 60% | pest or weed control at 15.625 g/ha [11]: 70% | pest or weed control at 62.5 g/ha [11]: 80% | pest or weed control at 250 g/ha [11]: 90% | pest or weed control at 15.625 g/ha [12, 14]: 0% | pest or weed control at 62.5 g/ha [12]: 0% | pest or weed control at 250 g/ha ([12]; 250 g ai/ha, read-out: Morningglory, Ivy-leaved damage rating (100=total damage to plant; 0=no damage to plant)): 10%
